According to patent publication US20090131515A1, “Combination of antidiabetic drugs” (SIGMA-TAU INDUSTRIE FARMACEUTICHE RIUNITE S.p.A., priority 2003, published 2009):
Values joined by “and” are separate entries in the source; they are usually repeats but may differ in a detail not shown here. Equal entries are not always repeated. Where two headings read alike, the source gives them in different places.

What was measured:
[1] = system: db/db mice; test: Blood glucose of db/db mice in postabsorption conditions, ST1326 and metformin alone or in combination; type: in vivo, mouse; conditions: male db/db mice, ST1326 30 mg/kg and metformin 200 mg/kg alone or in combination, twice daily for 16 days, 6 hours after last treatment, mean ± s.e.
Source text: (§1) The B6. V-Lep ob/ob, C57BL/KsJ db/db and C57BL/6 mice used in the experiments were supplied by Jackson Lab. (via Charles River).
(§2) Blood samples were taken from ob/ob and db/db mice in standard environmental conditions, on a normal diet (4 RF21, Mucedola) and from C57BL/6J mice on a high-fat diet (D-12331, Research Diets) for 3 months, in postabsorption conditions (fasting from 8.30 a.m. to 4.30 p.m.) from the caudal vein, with the aid of a Jelco 22G catheter (Johnson and Johnson).
(§3) The mice were treated orally twice daily (at 8.30 a.m. and 6.30 p.m.) with ST1326 at the dose of 30 mg/kg and with metformin at the dose of 200 mg/kg, alone or in combination.
(§4) Blood samples were taken on various different days after administration of the products and in different nutritional conditions for the serum glucose determinations, OGTT (Oral Glucose Tolerance Test) and IST (Insulin Suppression Test: Fujita et al., Diabetes 32: 804-810, 1983; Meglasson et al., J. Pharm. Exp. Therap. 266: 1454-1462, 1993; Luo et al., J. Pharm. Exp. Therap. 288: 529-534, 1999).

[2] = system: db/db mice; test: Oral Glucose Tolerance Test (OGTT) in db/db mice; type: in vivo, mouse; conditions: male db/db mice, fasting overnight; for Blood glucose in the OGTT, 0 min: ST1326 30 mg/kg and metformin 200 mg/kg alone or in combination, twice daily for 37 days, 15 hours after last treatment; for Blood glucose in the OGTT, 30 min / Blood glucose in the OGTT, 60 min / Blood glucose in the OGTT, 120 min / Blood glucose in the OGTT, AUC: same treatment for 37 days; for Blood glucose in the OGTT, 30 min: 30 min after glucose loading; for Blood glucose in the OGTT, 60 min: 60 min after glucose loading; for Blood glucose in the OGTT, 120 min: 120 min after glucose loading; for Blood glucose in the OGTT, AUC: AUC 0-120 min
Source text: as §1, §2, §3, §4
(§5) In the OGTT, blood samples were taken 0, 30, 60 and 120 minutes after glucose loading (3 g/kg).

[3] = system: ob/ob mice; test: Insulin Suppression Test (IST), blood glucose of ob/ob mice; type: in vivo, mouse; conditions: for Blood glucose levels in the IST: male ob/ob mice, postabsorption, 8 hours after last treatment, mean ± s.e.; for Reduction of hyperglycaemia in the IST: ob/ob mouse
Source text: as §1, §2, §3, §4
In the IST, blood samples were taken 60 min after subcutaneous loading of glucose (3 g/kg), insulin (Humulin R., Lilly 2 U/kg) and somatostatin (0.5 mg/kg).

[4] = system: ob/ob mice; test: Blood glucose of ob/ob mice in feeding conditions; type: in vivo, mouse; conditions: male ob/ob mice, ST1326 30 mg/kg and metformin 200 mg/kg alone or in combination, twice daily for 11 days, 15 hours after last treatment, mean ± s.e.
Source text: as §1, §2, §3, §4

[5] = system: C57BL/6 mice on a high-fat diet; test: Oral Glucose Tolerance Test (OGTT) in C57BL/6 mice on a high-fat diet; type: in vivo, mouse; conditions: male C57BL/6 mice on high-fat diet; for Blood glucose in the OGTT, 0 min: ST1326 30 mg/kg and metformin 200 mg/kg alone or in combination, twice daily for 35 days, postabsorption, 6 hours after last treatment; for Blood glucose in the OGTT, 30 min / Blood glucose in the OGTT, 60 min / Blood glucose in the OGTT, 120 min / Blood glucose in the OGTT, AUC: same treatment for 35 days; for Blood glucose in the OGTT, 30 min: 30 min after glucose loading; for Blood glucose in the OGTT, 60 min: 60 min after glucose loading; for Blood glucose in the OGTT, 120 min: 120 min after glucose loading; for Blood glucose in the OGTT, AUC: AUC 0-120 min
Source text: (§6) An example is the C57BL/6 mouse, which, as a result of exposure to a high-fat diet, develops not only insulin resistance but also mild hyperglycaemia (Surwit et al., 37: 1163-1167, 1988; Luo et al., Metabolism 47: 663-668,1998).
as §1, §2, §3, §4, §5

[6] = system: C57BL/6J mice on a high-fat diet; test: Blood glucose of C57BL/6J mice on a high-fat diet, postabsorption conditions; type: in vivo, mouse; conditions: male C57BL/6J mice on high-fat diet, ST1326 30 mg/kg and metformin 200 mg/kg alone or in combination, twice daily for 15 days, 6 hours after last treatment, mean ± s.e.
Source text: as §6, §1, §2, §3, §4

[7] = system: db/db mice; test: Serum glucose of db/db mice treated with ST1326 for 45 days, postabsorption conditions; type: in vivo, mouse; conditions: for Lowering serum glucose: db/db mice; for Serum glucose levels: male db/db mice, postabsorption, 8 hours after last treatment, mean ± s.e.
Source text: as §1, §2

[8] = system: KKAy mouse; conditions: cited from earlier work
[9] = system: type 2 diabetes patients; conditions: cited from earlier work
[10] = ST1326 30 mg/kg and metformin 200 mg/kg alone or in combination, twice daily for 18 days

SMILES | Blood glucose levels [1] [mg/dL] | Blood glucose in the OGTT, 0 min [2] [mg/dL] | Blood glucose in the OGTT, 30 min [2] [mg/dL] | Blood glucose in the OGTT, 60 min [2] [mg/dL] | Blood glucose in the OGTT, 120 min [2] [mg/dL] | Blood glucose in the OGTT, AUC [2] [mg·min/dL] | Blood glucose levels in the IST [3, 10] [mg/dL] | Blood glucose in the OGTT, 0 min [5] [mg/dL] | Blood glucose in the OGTT, 30 min [5] [mg/dL] | Blood glucose in the OGTT, 60 min [5] [mg/dL] | Blood glucose in the OGTT, 120 min [5] [mg/dL] | Blood glucose in the OGTT, AUC [5] [mg·min/dL] | Blood glucose levels [6] [mg/dL] | also measured
CCCCCCCCCCCCCCNC(=O)N[C@H](CC(=O)[O-])C[N+](C)(C)C [ST1326, R-4-trimethylammonio-3-(tetradecylcarbamoyl)-amino-butyrate] | 370.7 ± 30.0 | 175.3 ± 25.6 | 557.2 ± 30.6 | 498.3 ± 23.5 | 284.6 ± 20.8 | 50300 ± 2430 | 524.2 ± 56.2 | 156.0 ± 7.8 | 236.3 ± 11.2 | 207.0 ± 9.9 | 212.9 ± 8.6 | 25100 ± 652 | 167.3 ± 4.7 | Blood glucose levels [4]: 394.8 ± 25.7 mg/dL; Lowering serum glucose ([7]; dose of 40 mg/kg/day): inactive; Lowering serum glucose ([7]; dose of 100 mg/kg/day): effective; Serum glucose levels ([7]; oral 20 mg/kg twice daily for 45 days): 562 ± 40 mg/dL; Serum glucose levels ([7]; oral 50 mg/kg twice daily for 45 days): 350 ± 48 Δ mg/dl
CN(C)C(=N)N=C(N)N [METFORMIN, metformin] | 337.8 ± 33.1 | 195.5 ± 21.5 | 530.9 ± 34.6 | 456.8 ± 52.4 | 344.4 ± 40.9 | 49700 ± 4720 | 433.7 ± 34.8 | 141.1 ± 11.4 | 241.2 ± 18.9 | 212.3 ± 5.0 | 186.2 ± 15.1 | 24500 ± 1180 | 146.1 ± 9.2 | Blood glucose levels in the IST ([3]; oral metformin 300 mg/kg twice daily for 8 days): 412.1 ± 3.5 □ mg/dl; Reduction of hyperglycaemia in the IST ([3]; 200 mg/kg/day): ineffective; Reduction of hyperglycaemia in the IST ([3]; 600 mg/kg/day): 22%; Reduction of hyperglycaemia ([8]; 200 mg/kg/day): ineffective; Reduction of hyperglycaemia ([8]; 900 mg/kg/day): 50%; Reduction of hyperglycaemia ([9]; in combination with sulphonylureas): 25%; Reduction of hyperglycaemia ([9]; monotherapy after the failure of diet and physical exercise): 20% and 13-37%; Incidence of diarrhoea, nausea and gastrointestinal disorders ([9]; patients on metformin): approximately 20%
